From patent publication US6025467A, “Parathyroid hormone derivatives and their use” (Takeda Chemical Industries, Ltd., priority 1995, dated 2000) come the findings set out here.

In one assay the target is T1, PTH receptor (Mus musculus, UniProt P41593).
T1 construct: a mouse cranial bone-derived osteoblast-like cell strain, MC3T3-EI cells; endogenous in cells; host or cells: MC3T3-E1 mouse osteoblast-like cells
T1 sequence (P41593 27-591): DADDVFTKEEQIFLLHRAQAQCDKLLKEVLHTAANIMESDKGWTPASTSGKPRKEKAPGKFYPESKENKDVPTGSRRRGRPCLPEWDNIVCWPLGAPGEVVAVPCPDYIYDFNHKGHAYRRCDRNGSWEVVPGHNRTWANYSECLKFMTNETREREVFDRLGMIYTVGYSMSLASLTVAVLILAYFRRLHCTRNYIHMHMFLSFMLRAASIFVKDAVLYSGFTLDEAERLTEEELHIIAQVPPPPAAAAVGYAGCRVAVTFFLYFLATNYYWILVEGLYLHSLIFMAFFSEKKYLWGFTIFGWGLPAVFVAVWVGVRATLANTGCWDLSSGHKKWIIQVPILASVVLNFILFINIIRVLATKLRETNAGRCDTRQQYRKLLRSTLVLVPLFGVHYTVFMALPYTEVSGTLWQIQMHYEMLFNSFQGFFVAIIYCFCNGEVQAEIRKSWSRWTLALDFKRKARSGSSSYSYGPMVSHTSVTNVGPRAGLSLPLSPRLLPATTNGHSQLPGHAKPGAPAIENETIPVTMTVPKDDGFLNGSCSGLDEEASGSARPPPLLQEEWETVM
Nature of the assay: cAMP increase in MC3T3-EI osteoblast-like cells (biological activity in vitro). Type of assay: cell-based. The settings on record: 1 nM analogue, room temperature for 30 minutes, total cAMP by radioimmunoassay. How it is done: The biological activity of the PTH(1-34) peptide analogues was evaluated by the method reported by Shigeno et al., The Journal of Biological Chemistry, 263, 18369-18377 (1988) with a modification. A culture solution (Hank's solution, containing 20 mM N-2-hydroxyethylpiperazine-N'-2-ethanesulfonic acid (HEPES), 0.1% bovine serum albumin and 0.5 mM isobutylmethyl-xanthine) containing a 0.01, 0.1, 1, 10 or 100 nM peptide derivative was added in an amount of 100 μl to a mouse cranial bone-derived osteoblast-like cell strain, MC3T3-EI cells, cultivated on a 96-well multiplate (Nunclon, Nunc), followed by reaction at room temperature for 30 minutes. After addition of 100 μl of 0.2N hydrochloric acid, the plate was immersed in boiling water for 2.5 minutes to extract cyclic adenosine monophosphate (cAMP) produced by a PTH receptor from the cells. The total cAMP in the culture solution and the cells was assayed using a commercial radioimmunoassay kit (cyclic AMP [^125 I] kit "Du Pont-Daiichi", Daiichi Kagaku Yakuhin). For the biological activity of the PTH(1-34) peptide derivatives, increases in cAMP caused by 1 nM analogues are shown in Table 3.

Another assay concerns Sprangue Dawley rats. Nature of the assay: Increase in femur bone weight in rats after subcutaneous dosing. Type of assay: in vivo, rat. To be noted: 4.9 nmol/kg a day subcutaneously for two weeks; four-week-old male rats; dried right femur weight compared with vehicle group. How it is done:
To four-week-old male Sprangue Dawley rats, the compounds synthesized in Example 1 […], and increases in the bone weight in their femurs were compared with that of a group to which a vehicle (0.15M NaCl, 0.001N hydrochloric acid and 2% heat-inactivated rat serum) was given. After administration, their right femurs were taken out, and the tissues around them were removed. Then, the femurs were dried at 100° C. for 3 hours and weighed.

Residues, ends and D or L forms follow the SMILES beside them.

On PTH receptor, `CC[C@H](C)[C@H](NC(=O)[C@H](CCC(=O)O)NC(=O)[C@H](CO)NC(=O)[C@@H](NC(=O)[C@@H](N)CO)C(C)C)C(=O)N[C@@H](CCC(N)=O)C(=O)N[C@@H](CC(C)C)C(=O)N[C@@H](CCSC)C(=O)N[C@@H](Cc1c[nH]cn1)C(=O)N[C@@H](CC(=O)O)C(=O)N[C@@H](CC(C)C)C(=O)NCC(=O)N[C@@H](CCCCN)C(=O)N[C@@H](Cc1c[nH]cn1)C(=O)N[C@@H](CC(C)C)C(=O)N[C@@H](CC(N)=O)C(=O)N[C@@H](CO)C(=O)N[C@@H](CCSC)C(=O)N[C@@H](CCC(=O)O)C(=O)N[C@@H](CCCNC(=N)N)C(=O)N[C@H](C(=O)N[C@@H](CCC(=O)O)C(=O)N[C@@H](Cc1c[nH]c2ccccc12)C(=O)N[C@@H](CC(C)C)C(=O)N[C@@H](CCCNC(=N)N)C(=O)N[C@@H](CCCCN)C(=O)N[C@@H](CCCCN)C(=O)N[C@@H](CC(C)C)C(=O)N[C@@H](CCC(N)=O)C(=O)N[C@@H](CC(=O)O)C(=O)N[C@H](C(=O)N[C@@H](Cc1c[nH]cn1)C(=O)N[C@@H](CC(N)=O)C(=O)N[C@@H](Cc1ccccc1)C(=O)O)C(C)C)C(C)C` [(3), [Asp^10] hPTH(1-34)] came in with a cAMP increase of 0.60 pmol/well. For the same compound, the bone increase in the assay on Sprangue Dawley rats was 26.1 mg.

Compound `CC[C@H](C)[C@H](NC(=O)[C@H](CCC(=O)O)NC(=O)[C@H](CO)NC(=O)[C@@H](NC(=O)[C@@H](N)CO)C(C)C)C(=O)N[C@@H](CCC(N)=O)C(=O)N[C@@H](CC(C)C)C(=O)N[C@@H](CCSC)C(=O)N[C@@H](Cc1c[nH]cn1)C(=O)N[C@@H](CCC(=O)O)C(=O)N[C@@H](CC(C)C)C(=O)NCC(=O)N[C@@H](CCCCN)C(=O)N[C@@H](Cc1c[nH]cn1)C(=O)N[C@@H](CC(C)C)C(=O)N[C@@H](CC(N)=O)C(=O)N[C@@H](CO)C(=O)N[C@@H](CCSC)C(=O)N[C@@H](CCC(=O)O)C(=O)N[C@@H](CCCNC(=N)N)C(=O)N[C@H](C(=O)N[C@@H](CCC(=O)O)C(=O)N[C@@H](Cc1c[nH]c2ccccc12)C(=O)N[C@@H](CC(C)C)C(=O)N[C@@H](CCCNC(=N)N)C(=O)N[C@@H](CCCCN)C(=O)N[C@@H](CCCCN)C(=O)N[C@@H](CC(C)C)C(=O)N[C@@H](CCC(N)=O)C(=O)N[C@@H](CC(=O)O)C(=O)N[C@H](C(=O)N[C@@H](Cc1c[nH]cn1)C(=O)N[C@@H](CC(N)=O)C(=O)N[C@@H](Cc1ccccc1)C(=O)O)C(C)C)C(C)C` [(4), [Glu^10] hPTH(1-34)] registered a cAMP increase at PTH receptor of 1.81 pmol/well. In addition, the bone increase with Sprangue Dawley rats is given as 31.1 mg.

In turn, `CC[C@H](C)[C@H](NC(=O)[C@H](CCC(=O)O)NC(=O)[C@H](CO)NC(=O)[C@@H](NC(=O)[C@@H](N)CO)C(C)C)C(=O)N[C@@H](CCC(N)=O)C(=O)N[C@@H](CC(C)C)C(=O)N[C@@H](CCSC)C(=O)N[C@@H](Cc1c[nH]cn1)C(=O)N[C@@H](CC(=O)O)C(=O)N[C@@H](Cc1ccccc1)C(=O)NCC(=O)N[C@@H](CCCCN)C(=O)N[C@@H](Cc1c[nH]cn1)C(=O)N[C@@H](CC(C)C)C(=O)N[C@@H](CC(N)=O)C(=O)N[C@@H](CO)C(=O)N[C@@H](CCSC)C(=O)N[C@@H](CCC(=O)O)C(=O)N[C@@H](CCCNC(=N)N)C(=O)N[C@H](C(=O)N[C@@H](CCC(=O)O)C(=O)N[C@@H](Cc1c[nH]c2ccccc12)C(=O)N[C@@H](CC(C)C)C(=O)N[C@@H](CCCNC(=N)N)C(=O)N[C@@H](CCCCN)C(=O)N[C@@H](CCCCN)C(=O)N[C@@H](CC(C)C)C(=O)N[C@@H](CCC(N)=O)C(=O)N[C@@H](CC(=O)O)C(=O)N[C@H](C(=O)N[C@@H](Cc1c[nH]cn1)C(=O)N[C@@H](CC(N)=O)C(=O)N[C@@H](Cc1ccccc1)C(=O)O)C(C)C)C(C)C` [(5), [Asp^10, Phe^11] hPTH(1-34)] (H-SVSEIQLMHDFGKHLNSMERVEWLRKKLQDVHNF-OH) came in with a cAMP increase on PTH receptor of 2.58 pmol/well. This compound also registered a bone increase in the assay on Sprangue Dawley rats of 20.4 mg.
